The values that follow come from US7078401B2, “Thiophenylaminoimidazolines as IP antagonists” (Roche Palo Alto LLC, priority 2003, dated 2006).

Where a name gives a salt, the structure may show the parent alone.

As to `COc1ccc(Sc2ccc(NC3=NCCN3)cc2)cc1` (as salt: hydrochloride) [Compound 5, (4,5-Dihydro-1H-imidazol-2-yl)-[4-(4-methoxy-phenylsulfanyl)-phenyl]-amine], the melting point fell in the range of 149 to 150 °C.
In turn, `Clc1ccc(Sc2ccc(CNC3=NCCN3)cc2)cc1` (as salt: hydrochloride) [Compound 9, [4-(4-Chloro-phenylsulfanyl)-benzyl]-(4,5-dihydro-1H-imidazol-2-yl)-amine] came in with a melting point of 127 to 130 °C.
`Clc1ccc(Sc2ccc(NC3=NCCCC3)cc2)cc1` (as salt: hydrochloride) [Compound 73, [4-(4-Chloro-phenylsulfanyl)-phenyl]-(3,4,5,6-tetrahydro-pyridin-2-yl)-amine] had a melting point of 148 to 152 °C.
The molecule `COc1ccc(Sc2ccc(NC(=N)N)cc2)cc1` [Example 2, N-[4-(4-Methoxy-phenylsulfanyl)-phenyl]-guanidine] returned a melting point of 140 to 141 °C.

What is called melting point is the temperature of the solid-liquid transition.
